# Measurements taken from patent publication US4694069A, “Kibdelosporangium aridum SK&F-AAD-609” (SmithKline Beckman Corporation, priority 1985, dated 1987).
# Read-outs that look alike come from different tables or passages of the source.
# How the values were obtained:
# [1] = tested on: mixed intestinal microflora (cecum fluid); experiment: Swine in vitro model; conditions: one level, up to 166.67 ppm; 4-5 h
# How it was run: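 Cecum fluid from swine on normal rations, mixed 1:1 with nutrient broth (casein hydrolysate, maltose, urea, lysine, cellobiose), incubated with up to 166.67 ppm growth promotant at 39° C with oscillation for about 4-5 h. Glucose, volatile fatty acids, L-lactate and ethanol measured; values given as percentage of control.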
# [2] = tested on: S. aureus 2620 (methicillin resistant strain); experiment: MIC; format: cell-based; conditions: Table B, methicillin resistant strain
# Source text: (§1) In vitro minimum inhibitory concentrations (MIC) of the AAD-609 complex and of Factors A, B, CC2 and D, using standard microtiter assay procedures, against a number of microorganisms are reported in Table A, which follows.
# [3] = tested on: S. aureus 674; experiment: In vitro MIC, standard microtiter assay; format: cell-based, Staphylococcus aureus; conditions: Table A
# Source text: as §1
# [4] = tested on: S. aureus 209P; experiment: In vitro MIC, standard microtiter assay; format: cell-based, Staphylococcus aureus; conditions: Table A
# Source text: as §1
# [5] = tested on: S. aureus 910 (methicillin resistant strain); experiment: In vitro MIC, standard microtiter assay; format: cell-based, Staphylococcus aureus; conditions: Table A, methicillin resistant strain
# Source text: as §1
# [6] = tested on: S. aureus 675; experiment: In vitro MIC, standard microtiter assay; format: cell-based, Staphylococcus aureus; conditions: Table A
# Source text: as §1
# [7] = tested on: rumen fermentation (strained rumen fluid); experiment: Rumen in vitro model; parameters: species or system steer; conditions: for AAN (alpha amino nitrogen) / AMO (ammonia nitrogen) / LYS (lysine): 6 h; for % PR (percent propionate) / ACE (acetate) / BUT (butyrate) / ETOH (ethanol) / IBU (isobutyrate) / IVA (isovalerate) / PRO (propionate) / TOTAL (total volatile fatty acids) / VAL: 24 h
# Experimental: The AAD-609 antibiotics were characterized in a rumen in vitro model to assess their potential as feed additives for ruminants. […] Specifically, strained rumen fluid (10 ml) obtained from a fistulated steer receiving a roughage ration, was mixed with 10 ml of nutrient broth (20 mg casein hydrolysate, 100 mg maltose, 15 mg urea, 400 mg solka floc (cellulose), 100 mg cellobiose and 100 mg starch) and with a selected growth promotant and incubated at 39° C., with oscillation, for 24 hours. […] Measurement of AMO, LYS and AAN was done with a sample taken from the incubation flask after 6 hours.
# [8] = pKa by potentiometric titration; conditions: 30:70 acetonitrile:water, apparent values
# [9] = tested on: Staphylococcus aureus HH127; experiment: In vitro MIC, standard microtiter assay; format: cell-based
# Source text: as §1
# [10] = tested on: S. epidermidis 2479; experiment: In vitro MIC, standard microtiter assay; format: cell-based
# Source text: as §1
# [11] = tested on: Streptococcus faecalis 657; experiment: In vitro MIC, standard microtiter assay; format: cell-based; conditions: Table A
# Source text: as §1
# [12] = tested on: S. epidermidis 2683; experiment: In vitro MIC, standard microtiter assay; format: cell-based; conditions: Table A
# Source text: as §1
# [13] = tested on: Salmonella gallinarum BC-595; experiment: In vitro MIC, standard microtiter assay; format: cell-based; conditions: Table A
# Source text: as §1
# [14] = tested on: S. epidermidis 651 (methicillin resistant strain); experiment: In vitro MIC, standard microtiter assay; format: cell-based; conditions: methicillin resistant strain
# Source text: as §1
# [15] = tested on: Escherichia coli 12140; experiment: In vitro MIC, standard microtiter assay; format: cell-based; conditions: Table A
# Source text: as §1
# [16] = tested on: S. epidermidis 2265; experiment: In vitro MIC, standard microtiter assay; format: cell-based; conditions: Table A
# Source text: as §1
# [17] = tested on: Clostridium difficile; experiment: In vitro MIC, standard microtiter assay; format: cell-based; conditions: Table A
# Source text: as §1
# [18] = Pharmacokinetics in mice; conditions: mice
# [19] = tested on: S. faecalis 34358; experiment: In vitro MIC, standard microtiter assay; format: cell-based, Streptococcus faecalis
# Source text: as §1
# [20] = tested on: S. epidermidis 2479; experiment: Mouse protection test; format: in vivo; conditions: mice dosed 1 and 5 h post infection s.c.
# Source text: (§2) in mouse protection tests^1
# (§3) ^1 Mice dosed 1 and 5 H post infection s.c.; ED50, mg/kg.
# [21] = tested on: S. epidermidis 651 (methicillin resistant strain); experiment: Mouse protection test; format: in vivo; conditions: mice dosed 1 and 5 h post infection s.c.; methicillin resistant strain
# Source text: as §2, §3
# [22] = tested on: S. aureus HH127; experiment: Mouse protection test; format: in vivo; conditions: mice dosed 1 and 5 h post infection s.c.
# Source text: as §2, §3
# [23] = tested on: S. aureus 2620 (methicillin resistant strain); experiment: Mouse protection test; format: in vivo; conditions: mice dosed 1 and 5 h post infection s.c.; methicillin resistant strain
# Source text: as §2, §3
# [24] = tested on: S. faecalis 34358; experiment: Mouse protection test; format: in vivo; conditions: mice dosed 1 and 5 h post infection s.c.
# Source text: as §2, §3
# [25] = comparators, source not given; cited from earlier work
# [26] = Staphylococcus aureus, read-out: MIC
# [27] = AAD-216A averaged previous results
# [28] = first phenolic OH, AAD-216A averaged previous results
# [29] = second phenolic OH, AAD-216A averaged previous results
# [30] = third phenolic OH, AAD-216A averaged previous results
compound,measurement,setting,value
CCCCCCCCCC(=O)NC1C(Oc2c3cc4cc2Oc2c(Cl)cc(cc2Cl)C(O)C2NC(=O)C(NC(=O)C4NC(=O)C4NC(=O)C(NC(=O)C(NC)c5ccc(O)c(c5)Oc5cc(O)c(Cl)c4c5)C(O)c4ccc(c(Cl)c4)O3)c3ccc(O)c(c3)-c3c(OC4OC(CO)C(O)C(O)C4O)cc(O)cc3C(C(=O)O)NC2=O)OC(C(=O)O)C(O)C1O (stereo not drawn) [AAD-216 A],% PR (percent propionate),[1],117 % of control
same,ACE (acetate),[1],200 % of control
same,BUT (butyrate),[1],147 % of control
same,ETOH (ethanol),[1],167 % of control
same,GLU (glucose),[1],180 % of control
same,IBU (isobutyrate),[1],0 % of control
same,IVA (isovalerate),[1],0 % of control
same,LLA (L-lactate),[1],2 % of control
same,LYS (lysine),[1],35 % of control
same,PRO (propionate),[1],276 % of control
same,TOTAL (total volatile fatty acids),[1],236 % of control
same,VAL,[1],0 % of control
same,MIC,[2]; [26],4 µg/mL
same,MIC,"[3]; Staphylococcus aureus, 674, read-out: MIC",3.1 µg/mL
same,MIC,"[4]; Staphylococcus aureus, 209P, read-out: MIC",0.8 µg/mL
same,MIC,[5]; [26],3.1 µg/mL
same,MIC,"[6]; Staphylococcus aureus, 675, read-out: MIC",12.5 µg/mL
same,AAN (alpha amino nitrogen),[7]; 0.50 ppm,76 % of control
same,AMO (ammonia nitrogen),[7]; 0.50 ppm,102 % of control
same,LYS (lysine),[7]; 0.50 ppm,108 % of control
same,% PR (percent propionate),[7]; 0.50 ppm,106 % of control
same,ACE (acetate),[7]; 0.50 ppm,96 % of control
same,BUT (butyrate),[7]; 0.50 ppm,100 % of control
same,ETOH (ethanol),[7]; 0.50 ppm,0 % of control
same,IBU (isobutyrate),[7]; 0.50 ppm,125 % of control
same,IVA (isovalerate),[7]; 0.50 ppm,124 % of control
same,PRO (propionate),[7]; 0.50 ppm,107 % of control
same,TOTAL (total volatile fatty acids),[7]; 0.50 ppm,101 % of control
same,AAN (alpha amino nitrogen),[7]; 5.00 ppm,153 % of control
same,AMO (ammonia nitrogen),[7]; 5.00 ppm,101 % of control
same,LYS (lysine),[7]; 5.00 ppm,144 % of control
same,% PR (percent propionate),[7]; 5.00 ppm,148 % of control
same,ACE (acetate),[7]; 5.00 ppm,105 % of control
same,BUT (butyrate),[7]; 5.00 ppm,81 % of control
same,ETOH (ethanol),[7]; 5.00 ppm,0 % of control
same,IBU (isobutyrate),[7]; 5.00 ppm,75 % of control
same,IVA (isovalerate),[7]; 5.00 ppm,48 % of control
same,PRO (propionate),[7]; 5.00 ppm,153 % of control
same,TOTAL (total volatile fatty acids),[7]; 5.00 ppm,103 % of control
same,VAL,[7]; 5.00 ppm,56 % of control
same,AAN (alpha amino nitrogen),[7]; 50.00 ppm,195 % of control
same,AMO (ammonia nitrogen),[7]; 50.00 ppm,109 % of control
same,LYS (lysine),[7]; 50.00 ppm,168 % of control
same,% PR (percent propionate),[7]; 50.00 ppm,140 % of control
same,ACE (acetate),[7]; 50.00 ppm,93 % of control
same,BUT (butyrate),[7]; 50.00 ppm,87 % of control
same,ETOH (ethanol),[7]; 50.00 ppm,0 % of control
same,IBU (isobutyrate),[7]; 50.00 ppm,112 % of control
same,IVA (isovalerate),[7]; 50.00 ppm,98 % of control
same,PRO (propionate),[7]; 50.00 ppm,138 % of control
same,TOTAL (total volatile fatty acids),[7]; 50.00 ppm,98 % of control
same,VAL,[7]; 50.00 ppm,26 % of control
same,pKa (A) carboxyl on aglycone,[8]; [27],3.0
same,pKa (B) carboxyl on side chain,[8]; [27],4.9
same,pKa (C) amino group on aglycone,[8]; [27],7.4
same,pKa (D) phenolic OH,[8]; [28],8.4
same,pKa (D) phenolic OH,[8]; [29],10.0
same,pKa (D) phenolic OH,[8]; [30],10.3
same,MIC,"[9]; Staphylococcus aureus, HH127, Table A, read-out: MIC",3.1 µg/mL
same,MIC,[9]; Table B,3.1 µg/mL
same,MIC,"[10]; Staphylococcus epidermidis, 2479, Table A, read-out: MIC",25 µg/mL
same,MIC,[10]; Table B,25 µg/mL
same,MIC,"[11]; Enterococcus faecalis, 657, read-out: MIC",0.8 µg/mL
same,MIC,"[12]; Staphylococcus epidermidis, 2683, read-out: MIC",50 µg/mL
same,MIC,"[13]; Salmonella enterica, GALLINARUM, read-out: MIC",> 100 µg/mL
same,MIC,"[14]; Staphylococcus epidermidis, Table A, read-out: MIC",100 µg/mL
same,MIC,[14]; Table B,100 µg/mL
same,MIC,"[15]; Escherichia coli, 12140, read-out: MIC",> 100 µg/mL
same,MIC,"[16]; Staphylococcus epidermidis, 2265, read-out: MIC",50 µg/mL
same,MIC,"[17]; Clostridioides difficile, read-out: MIC",0.25 µg/mL
same,Elimination half-life,[18],3.77 h
same,Maximum serum concentration,[18],121 µg/mL
same,MIC,"[19]; Enterococcus faecalis, 34358, Table A, read-out: MIC",0.4 µg/mL
same,MIC,[19]; Table B,0.4 µg/mL
CNC1C(=O)NC2C(=O)NC(C(=O)NC3C(=O)NC4C(=O)NC(C(=O)NC(C(=O)O)c5cc(O)cc(OC6OC(CO)C(O)C(O)C6O)c5-c5cc4ccc5O)C(O)c4cc(Cl)c(c(Cl)c4)Oc4cc3cc(c4OC3OC(CO)C(O)C(O)C3NC(=O)CCCCCCCCC(C)C)Oc3ccc(cc3Cl)C2O)c2cc(cc(O)c2Cl)Oc2cc1ccc2O (stereo not drawn) [AAD-609 C],MIC,[2],4 µg/mL
same,MIC,[3],1.6 µg/mL
same,MIC,[4],0.8 µg/mL
same,MIC,[5],1.6 µg/mL
same,MIC,[6],6.3 µg/mL
same,ED50,[20],22 mg/kg
same,ED50,[21],50 mg/kg
same,ED50,[22],8.5 mg/kg
same,ED50,[23],8.4 mg/kg
same,ED50,[24],50 mg/kg
same,pKa (A) carboxyl on aglycone,[8]; [27],3.6
same,pKa (C) amino group on aglycone,[8]; [27],7.2
same,pKa (D) phenolic OH,[8]; [28],8.4
same,pKa (D) phenolic OH,[8]; fourth phenolic OH,11.6
same,pKa (D) phenolic OH,[8]; [29],9.9
same,pKa (D) phenolic OH,[8]; [30],10.6
same,MIC,[9]; Table A,1.6 µg/mL
same,MIC,[9]; Table B,1.6 µg/mL
same,MIC,[10]; Table A,12.5 µg/mL
same,MIC,[10]; Table B,12.5 µg/mL
same,MIC,[11],0.2 µg/mL
same,MIC,[12],25 µg/mL
same,MIC,[13],> 100 µg/mL
same,MIC,[14]; Table A,25 µg/mL
same,MIC,[14]; Table B,25 µg/mL
same,MIC,[15],> 100 µg/mL
same,MIC,[16],25 µg/mL
same,MIC,[17],1 µg/mL
same,MIC,[19]; Table A,0.2 µg/mL
same,MIC,[19]; Table B,0.2 µg/mL
ristocetin,Isoelectric point,[25],8.4
